Experimental findings from patent US6362212B1, “Oxime derivative and bactericide containing the same as active ingredient” (Shionogi & Company, Ltd., priority 1994, dated 2002) are described below.

Holding throughout (type): in vivo
The test system of assay [1] is Pyricularia oryzae. As to conditions: foliage spray on rice seedlings (cv. […]), number of lesions six days after the inoculation.
Assay [2] relates to Botrytis cinerea. Briefly: Controlling effect on Botrytis cinerea by foliage application (pot experiment). To be noted: foliage spray on cucumber (cv. TSUKUBASHIROIBO) first leaves, mycelial disks, lesion diameter after 3 days in moist chamber at 20° C. The protocol: The following Test Examples illustrate the effects of the fungicide of the present invention. (I. Controlling effects on various plant diseases by foliage application (pot experiment)) A test compound was dissolved in a small amount of N,N-dimethylformamide, and the solution was diluted to a given concentration with distilled water containing a spreader. Thus, a liquid sample to be tested was prepared. The liquid sample was sprayed to test plants, and 24 hours thereafter, pathogens were inoculated by the method described below. […] The seeds of cucumber ([…]) were sown in plastic cups (each 9 cm in diameter), followed by cultivation for 2 to 3 weeks. The test compound in the form of a solution or suspension was sprayed to the surface of their first leaves, and mycelial disks (4 mm φ) of Botrytis cinerea cultured on the potato sucrose agar medium were put on the leaf surfaces to inoculate. the cucumber seedlings with the pathogen. The plants were kept in a moist chamber at 20° C. for 3 days. The diameter of the lesions on the leaves was measured and the percent control was calculated.

For assay [3], the system named is Sphaerotheca fuliginea. Kind of assay: Controlling effect on Sphaerotheca fuliginea by foliage application (pot experiment). As to conditions: foliage spray on cucumber (cv. TSUKUBASHIROIBO) first leaves, infected area after 10 days in greenhouse at 20° C. In a few lines: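 First leaves of cucumber seedlings, 2-3 weeks old, were sprayed with compound (DMF solution diluted in water with spreader). They were inoculated 24 h later with a Sphaerotheca fuliginea conidia spray and kept 10 days at 20° C in a greenhouse. Percent control was calculated from infected leaf area.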

The test system of assay [4] is Erysiphe graminis f. sp. tritici. Briefly: Controlling effect on Erysiphe graminis f. sp. tritici by foliage application (pot experiment). As to conditions: foliage spray on wheat (cv. NORIN No. 61) seedlings, infected area after 10 days in greenhouse at 20° C. In a few lines: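 Wheat seedlings (cv. NORIN No. 61, 2-3 weeks old) sprayed with compound in DMF diluted in water with spreader, then inoculated with conidia 24 hours later. Kept in greenhouse at 20 °C for 10 days; percent control calculated from infected leaf area.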

The test system of assay [5] is Puccinia coronata. Briefly: Controlling effect on Puccinia coronata by foliage application (pot experiment). To be noted: foliage spray on oat (cv. PC-38) seedlings, infected area after 1 day moist chamber and 8 days greenhouse at 20° C. In a few lines:
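Oat seedlings (cv. PC-38, 2–3 weeks old) were sprayed with compound in DMF diluted with spreader-containing water, then inoculated 24 h later with P. coronata spores diluted in talc. Plants were held 1 day in a moist chamber at 20° C, then 8 days in a greenhouse at 20° C; percent control came from infected leaf area.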

Assay [6] has as its system Pseudoperonospora cubensis. Kind of assay: Controlling effect on Pseudoperonospora cubensis by foliage application (pot experiment). To be noted: foliage spray on cucumber (var. TSUKUBASHIROIBO) first leaves, lesion area after 10 days in moist chamber at 20° C. In a few lines:
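Cucumber plants grown 2–3 weeks were sprayed on first leaves with compound (DMF solution diluted in water with spreader); 24 h later, Pseudoperonospora cubensis zoosporangia suspension dropped on leaves. Plants held in moist chamber at 20° C for 10 days; lesion area observed and percent control calculated.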

Take `CON=C(c1ccccc1COc1ccccc1)n1ccnc1` [Compound No. 1]: the “Controlling effect on PYricularia orYzae by foliage application at 500 ppm (percent control)” value in assay [1] was 90 percent control. For the same compound, the “Controlling effect on Botrytis cinerea by foliage application at 500 ppm (percent control)” value in assay [2] is 100 percent control. Further, in assay [3], the “Controlling effect on Sphaerotheca fuliginea by foliage application at 500 ppm (percent control)” value stood at 100 percent control. The “Controlling effect on ErYsiphe graminis f. sp. tritici by foliage application at 500 ppm (percent control)” value in assay [4] is 90 percent control. Besides, the “Controllng effect on Puccinia coronata by foliage application at 500 ppm (percent control)” value (shortened to “Controllng effect … (percent control)”) in assay [5] is on record as 97 percent control.
As to `CON=C(c1ccccc1COc1ccccc1Cl)n1ccnc1` [Compound No. 5], the “Controlling effect on PYricularia orYzae by foliage application at 500 ppm (percent control)” value in assay [1] is on record as 97 percent control. Besides, in assay [2], the “Controlling effect on Botrytis cinerea by foliage application at 500 ppm (percent control)” value was 70 percent control. Also, in assay [3], the “Controlling effect on Sphaerotheca fuliginea by foliage application at 500 ppm (percent control)” value is 100 percent control. Further, the “Controlling effect on ErYsiphe graminis f. sp. tritici by foliage application at 500 ppm (percent control)” value in assay [4] came out at 90 percent control. In assay [5], the “Controllng effect … (percent control)” value was determined as 90 percent control.
As for `CON=C(c1ccccc1COc1ccc(Cl)cc1)n1ccnc1` [Compound No. 7], the “Controlling effect on PYricularia orYzae by foliage application at 500 ppm (percent control)” value in assay [1] was found to be 97 percent control. Further, in assay [2], the “Controlling effect on Botrytis cinerea by foliage application at 500 ppm (percent control)” value turned out to be 100 percent control. Also, in assay [3], the “Controlling effect on Sphaerotheca fuliginea by foliage application at 500 ppm (percent control)” value is given as 100 percent control. In addition, the “Controlling effect on ErYsiphe graminis f. sp. tritici by foliage application at 500 ppm (percent control)” value in assay [4] is 100 percent control. The “Controllng effect … (percent control)” value in assay [5] stood at 97 percent control.
Regarding `CON=C(c1ccccc1COc1ccccc1C)n1ccnc1` [Compound No. 13], in assay [1], the “Controlling effect on PYricularia orYzae by foliage application at 500 ppm (percent control)” value was 90 percent control. Besides, in assay [2], the “Controlling effect on Botrytis cinerea by foliage application at 500 ppm (percent control)” value was 70 percent control. The “Controlling effect on Sphaerotheca fuliginea by foliage application at 500 ppm (percent control)” value in assay [3] was 100 percent control. The “Controlling effect on ErYsiphe graminis f. sp. tritici by foliage application at 500 ppm (percent control)” value in assay [4] was 90 percent control. For the same compound, the “Controllng effect … (percent control)” value in assay [5] is listed as 97 percent control.
`CON=C(c1ccccc1COc1ccc(C)cc1)n1ccnc1` [Compound No. 15]: the “Controlling effect on PYricularia orYzae by foliage application at 500 ppm (percent control)” value in assay [1] came to 90 percent control. Also, the “Controlling effect on Botrytis cinerea by foliage application at 500 ppm (percent control)” value in assay [2] is 100 percent control. In assay [3], the “Controlling effect on Sphaerotheca fuliginea by foliage application at 500 ppm (percent control)” value is reported as 100 percent control. Moreover, in assay [4], the “Controlling effect on ErYsiphe graminis f. sp. tritici by foliage application at 500 ppm (percent control)” value turned out to be 97 percent control. The “Controllng effect … (percent control)” value in assay [5] is 100 percent control.
As for `CCON=C(c1ccccc1COc1ccccc1)n1ccnc1` [Compound No. 61], the “Controlling effect on PYricularia orYzae by foliage application at 500 ppm (percent control)” value in assay [1] was 97 percent control. For the same compound, in assay [2], the “Controlling effect on Botrytis cinerea by foliage application at 500 ppm (percent control)” value amounted to 100 percent control. In assay [4], the “Controlling effect on ErYsiphe graminis f. sp. tritici by foliage application at 500 ppm (percent control)” value was determined as 97 percent control. In addition, in assay [5], the “Controllng effect … (percent control)” value is recorded as 97 percent control.
In the case of `C=CCON=C(c1ccccc1COc1ccccc1)n1ccnc1` [Compound No. 81], the “Controlling effect on PYricularia orYzae by foliage application at 500 ppm (percent control)” value in assay [1] worked out at 97 percent control. Besides, the “Controlling effect on Botrytis cinerea by foliage application at 500 ppm (percent control)” value in assay [2] is reported as 90 percent control. Moreover, the “Controlling effect on ErYsiphe graminis f. sp. tritici by foliage application at 500 ppm (percent control)” value in assay [4] turned out to be 97 percent control. In assay [5], the “Controllng effect … (percent control)” value turned out to be 97 percent control.
As for `OC(c1ccc(Cl)cc1)(c1cncnc1)c1ccccc1Cl` (centres unmarked) [Fenarimol, reference compound], the “Controlling effect on Botrytis cinerea by foliage application at 500 ppm (percent control)” value in assay [2] is on record as 97 percent control. Besides, the pest or weed control at 500 ppm was determined as 97% in assay [3] (Podosphaera fuliginea, in Cucumis sativus, foliar, 240 h, read-out: Controlling effect on Sphaerotheca fuliginea by foliage application at 500 ppm (percent control)) and 97% in assay [4] (Blumeria graminis, foliar, 240 h, read-out: Controlling effect on ErYsiphe graminis f. sp. tritici by foliage application at 500 ppm (percent control)). Besides, the “Controllng effect … (percent control)” value in assay [5] was 97 percent control.
Consider `CON=C(c1ccccc1COc1c(C)cccc1C)n1ccnc1` [compound 40], for which, in assay [1], the “Controlling effect on PYricularia orYzae by foliage application at 500 ppm (percent control)” value turned out to be 90 percent control. Moreover, the “Controlling effect on Botrytis cinerea by foliage application at 500 ppm (percent control)” value in assay [2] is given as 70 percent control. Besides, in assay [3], the “Controlling effect on Sphaerotheca fuliginea by foliage application at 500 ppm (percent control)” value was determined as 100 percent control. In assay [4], the “Controlling effect on ErYsiphe graminis f. sp. tritici by foliage application at 500 ppm (percent control)” value came to 97 percent control. In assay [5], the “Controllng effect … (percent control)” value is recorded as 70 percent control.
In the case of `CON=C(c1ccccc1COc1ccccc1)n1cncc1C` [compound 201], the “Controlling effect on PYricularia orYzae by foliage application at 500 ppm (percent control)” value in assay [1] was determined as 90 percent control. The “Controlling effect on Botrytis cinerea by foliage application at 500 ppm (percent control)” value in assay [2] is listed as 70 percent control. In assay [3], the “Controlling effect on Sphaerotheca fuliginea by foliage application at 500 ppm (percent control)” value is listed as 100 percent control. Further, in assay [4], the “Controlling effect on ErYsiphe graminis f. sp. tritici by foliage application at 500 ppm (percent control)” value was found to be 90 percent control. Further, the “Controllng effect … (percent control)” value in assay [5] came out at 90 percent control.
On to `CON=C(c1ccccc1COc1ccccc1Cl)n1cncc1C` [compound 205], for which the “Controlling effect on PYricularia orYzae by foliage application at 500 ppm (percent control)” value in assay [1] is listed as 90 percent control. Moreover, the “Controlling effect on Botrytis cinerea by foliage application at 500 ppm (percent control)” value in assay [2] was determined as 70 percent control. The “Controlling effect on Sphaerotheca fuliginea by foliage application at 500 ppm (percent control)” value in assay [3] is on record as 100 percent control. For the same compound, the “Controllng effect … (percent control)” value in assay [5] worked out at 70 percent control.
In the case of `CON=C(c1ccccc1COc1cccc(Cl)c1)n1cncc1C` [compound 206], in assay [1], the “Controlling effect on PYricularia orYzae by foliage application at 500 ppm (percent control)” value is given as 90 percent control. The “Controlling effect on Botrytis cinerea by foliage application at 500 ppm (percent control)” value in assay [2] came to 97 percent control. In assay [3], the “Controlling effect on Sphaerotheca fuliginea by foliage application at 500 ppm (percent control)” value was 100 percent control. The “Controlling effect on ErYsiphe graminis f. sp. tritici by foliage application at 500 ppm (percent control)” value in assay [4] was 90 percent control. The “Controllng effect … (percent control)” value in assay [5] was 97 percent control.
With `CON=C(c1ccccc1COc1ccc(Cl)cc1)n1cncc1C` [compound 207], the “Controlling effect on PYricularia orYzae by foliage application at 500 ppm (percent control)” value in assay [1] was determined as 90 percent control. Also, the “Controlling effect on Botrytis cinerea by foliage application at 500 ppm (percent control)” value in assay [2] is 100 percent control. In addition, the “Controlling effect on Sphaerotheca fuliginea by foliage application at 500 ppm (percent control)” value in assay [3] worked out at 100 percent control. Moreover, the “Controlling effect on ErYsiphe graminis f. sp. tritici by foliage application at 500 ppm (percent control)” value in assay [4] is recorded as 100 percent control. Moreover, the “Controllng effect … (percent control)” value in assay [5] was 97 percent control.
Consider `CON=C(c1nnco1)c1ccccc1COc1cccc(C)c1` [compound 713], for which the “Controlling effect on Pseudoperonospora cubensis by foliage application at 500 ppm (percent control)” value in assay [6] was 100 percent control. Further, the “Controlling effect on PYricularia orYzae by foliage application at 500 ppm (percent control)” value in assay [1] came to 97 percent control. Moreover, the “Controlling effect on Botrytis cinerea by foliage application at 500 ppm (percent control)” value in assay [2] was 70 percent control. The “Controlling effect on Sphaerotheca fuliginea by foliage application at 500 ppm (percent control)” value in assay [3] turned out to be 100 percent control. The “Controlling effect on ErYsiphe graminis f. sp. tritici by foliage application at 500 ppm (percent control)” value in assay [4] came out at 90 percent control.
For the compound `CON=C(c1nnco1)c1ccccc1COc1ccc(Cl)c(Cl)c1` [compound 732], the “Controlling effect on Pseudoperonospora cubensis by foliage application at 500 ppm (percent control)” value in assay [6] is listed as 100 percent control. Further, the “Controlling effect on PYricularia orYzae by foliage application at 500 ppm (percent control)” value in assay [1] stood at 70 percent control. Moreover, in assay [2], the “Controlling effect on Botrytis cinerea by foliage application at 500 ppm (percent control)” value is 70 percent control. Moreover, the “Controlling effect on Sphaerotheca fuliginea by foliage application at 500 ppm (percent control)” value in assay [3] was found to be 100 percent control. In assay [4], the “Controlling effect on ErYsiphe graminis f. sp. tritici by foliage application at 500 ppm (percent control)” value is reported as 70 percent control.
